According to ChEMBL document CHEMBL6127077, “Discovery and biological evaluation of 6-aryl-4-(3,4,5-trimethoxyphenyl)quinoline derivatives with promising antitumor activities as novel colchicine-binding site inhibitors” (Eur J Med Chem, 2024):
Active and inactive are the calls of the source. The calls are words filed in the database; no cut-off is given here.

What was measured:
SGC-7901 = test: Antiproliferative activity against human SGC-7901 cells assessed as inhibition of cell growth incubated for 72 hrs by MTT assay; format: functional, cell-based; details: SGC-7901, 72 h
Huh-7 = test: cells; details: Homo sapiens, Huh-7, 72 h
Description: Antiproliferative activity against human Huh-7 cells assessed as inhibition of cell growth incubated for 72 hrs by MTT assay

MCF7 = test: cells; details: Homo sapiens, MCF7, 72 h
Description: Antiproliferative activity against human MCF7 cells assessed as inhibition of cell growth incubated for 72 hrs by MTT assay

[1] = Antiproliferative activity against human MCF7/ADM cells assessed as inhibition of cell growth incubated for 72 hrs by MTT assay; format: functional, cell-based
[2] = Cytotoxicity against human HUVEC cells incubated for 72 hrs by MTT assay; format: toxicity, cell-based
Tubulin (Homo sapiens) [3] = target: T1, Tubulin (Homo sapiens) (UniProt P68371+Q9H4B7+P0DPH7+P68366+Q13509+Q71U36+P04350+Q3ZCM7+P07437+P68363+Q9BQE3+Q6PEY2+Q13885+Q9BVA1+Q9BUF5); test: Disruption of microtubule network in human Huh-7 cells assessed as shortened microtubule wrap around the nucleus incubated for 24 hrs by DAPI staining based microscopic analysis; format: cell-based; details: dose 30-60 nM
Tubulin (Homo sapiens) [4] = target: T1, Tubulin (Homo sapiens); test: Inhibition of tubulin polymerization (unknown origin) at 5 uM by infinite F500 microplate reader analysis; format: protein-complex assay

Compound	IC50 (SGC-7901) [µM]	IC50 (Huh-7) [µM]	IC50 (MCF7) [µM]	IC50 [1] [µM]	IC50 at 72 h [2] [µM]	Activity (Tubulin (Homo sapiens) [3])	inhibition (Tubulin (Homo sapiens) [4])
COc1cc(-c2ccnc3ccc(-c4ccc([N+](=O)[O-])cc4)cc23)cc(OC)c1OC	20.3	8.22	> 100	–	–	–	–
COc1cc(-c2ccnc3ccc(-c4ccccc4C)cc23)cc(OC)c1OC	> 100	39.8	> 100	–	–	–	–
COc1cc(-c2ccnc3ccc(-c4ccc(C)c(C)c4)cc23)cc(OC)c1OC	2.15	3.67	1.34	–	–	–	–
COc1cc(-c2ccnc3ccc(-c4ccccc4)cc23)cc(OC)c1OC	7.92	1.15	1.43	–	–	–	–
COc1cc(-c2ccnc3ccc(-c4ccc5ccccc5c4)cc23)cc(OC)c1OC	1.36	4.45	> 100	–	–	–	–
COc1ccc(/C=C\c2cc(OC)c(OC)c(OC)c2)cc1O [COMBRETASTATIN A4]	0.12	0.079	0.087	2	0.32	Dose-Dependent Effect	–
COc1cc(-c2ccnc3ccc(-c4cccnc4)cc23)cc(OC)c1OC	9.11	4.58	22.1	–	–	–	–
CC(=O)O[C@H]1C(=O)[C@@]2(C)[C@H]([C@H](OC(=O)c3ccccc3)[C@]3(O)C[C@H](OC(=O)[C@H](O)[C@@H](NC(=O)c4ccccc4)c4ccccc4)C(C)=C1C3(C)C)[C@]1(OC(C)=O)CO[C@@H]1C[C@@H]2O	–	–	–	–	–	–	Active
COc1cc(-c2ccnc3ccc(-c4ccncc4)cc23)cc(OC)c1OC	> 100	> 100	44.5	–	–	–	–
COc1cc(-c2ccnc3ccc(-c4ccc(F)cc4)cc23)cc(OC)c1OC	10.5	5.15	17.1	–	–	–	–
COc1ccc(-c2ccc3nccc(-c4cc(OC)c(OC)c(OC)c4)c3c2)cc1O	25.3	0.12	3.62	–	–	–	–
COc1ccc(-c2ccc3nccc(-c4cc(OC)c(OC)c(OC)c4)c3c2)cc1	1.38	0.04	0.33	–	–	–	–
